# Where “and” joins values, the source holds several entries; their conditions need not be identical. Equal entries are not always repeated. Where two headings read alike, the source gives them in different places.
# Experiments:
# [1] = molecular target: T1, THERMINATOR™ DNA polymerase (Thermococcus sp., UniProt Q56366, A485L/D141A/E143A); assay: biochemical; parameters: species or system Thermococcus species 9° N-7
# T1 construct: purchased New England Biolabs
# Experimental: Natural and modified nucleotides were tested for incorporation efficiency using the “polymerase end point assay” (Wu et al., 2007, which is incorporated herein by reference). This assay examines incorporation efficiency on matched and mismatched template bases. Incorporation efficiency is measured by determining the concentration at which the compound incorporates on half the primer-template complexes (IC50). Titrations of increasing compound concentration were performed to generate curves from which the IC50 can be determined.
# (§1) The sequence of the template DNA is selected depending on which compound will be tested. For example, the first interrogation base after the primer in the template sequence is the complement base of the compound when measuring incorporation efficiency, and one of three mismatched bases when measuring mismatch discrimination properties.
# (§2) To the annealed reaction, a DNA polymerase (e.g., THERMINATOR™ DNA polymerase, 0.25 units per reaction, New England Biolabs), 1× Thermopol Buffer, and a known concentration of either natural or modified nucleotide are added to each 10 μL reaction and incubated at 75° C. for 10 minutes, cooled on ice, and quenched with 10 μL of stop solution (98% formamide: 10 mM Na2EDTA, pH=8.0, 25 mg/ml Blue Dextran). Stopped reactions are heated to 75° C. for 30 seconds to denature the DNA, and then placed on ice. The extension products are analyzed on a 10% Long Ranger (Lonza) polyacrylamide gel using an ABI model 377 DNA sequencer. Additional details are provided in Example 1, below.
# Polymerase Assays. Natural and modified nucleotides were tested for incorporation efficiency using the “polymerase end point assay” (Wu et al., 2007, which is incorporated herein by reference). This assay examines incorporation efficiency on matched and mismatched template bases. Incorporation efficiency is measured by determining the concentration at which the compound incorporates on half the primer-template complexes (IC50). Titrations of increasing compound concentration were performed to generate curves from which the IC50 can be determined.
# The assay is performed by first annealing 5 nM of BODIPY-FL labeled primer with 40 nM template DNA in 1× Thermopol Buffer (20 mM Tris-HCl, pH 8.8; 10 mM (NH4)2SO4; 10 mM KCl; 2 mM MgSO4; 0.1% Triton X-100, New England BioLabs).
# as §1, with “The temperature cycle to complete primer annealing is 80° C. for 30 seconds, 57° C. for 30 seconds, then cooling to 4° C. The” for “The”
# as §2, with “sequencer.” for “sequencer. Additional details are provided in Example 1, below.”
# [2] = molecular target: T1, THERMINATOR™ DNA polymerase; assay: termination assay, weighted sum analysis on homopolymer repeat template; assay type: biochemical, Thermococcus species 9° N-7; details: 1.0 = complete termination after a single incorporation
# Experimental: A weighted sum of 1.0 represents complete termination after a single incorporation, while a value greater than 1.0 indicates incorporation beyond the +1 position (e.g. nucleotide read through). […] The assay is performed as described above for the polymerase end-point assay, except that the template used is a homopolymer repeat, thereby allowing for multiple incorporations of a given nucleotide compound.
# [3] = concentration at which the compound incorporates on half the primer-template complexes, complement template base, read-out: IC50 for incorporation
# [4] = IC50 for incorporation, concentration at which the compound incorporates on half the primer-template complexes, complement template base
# [5] = Adj IC50 Conc (nM), adjusted IC50 used to set the concentrations of the termination assay
# T1 sequence (Q56366 whole entry D141A/E143A/A485L): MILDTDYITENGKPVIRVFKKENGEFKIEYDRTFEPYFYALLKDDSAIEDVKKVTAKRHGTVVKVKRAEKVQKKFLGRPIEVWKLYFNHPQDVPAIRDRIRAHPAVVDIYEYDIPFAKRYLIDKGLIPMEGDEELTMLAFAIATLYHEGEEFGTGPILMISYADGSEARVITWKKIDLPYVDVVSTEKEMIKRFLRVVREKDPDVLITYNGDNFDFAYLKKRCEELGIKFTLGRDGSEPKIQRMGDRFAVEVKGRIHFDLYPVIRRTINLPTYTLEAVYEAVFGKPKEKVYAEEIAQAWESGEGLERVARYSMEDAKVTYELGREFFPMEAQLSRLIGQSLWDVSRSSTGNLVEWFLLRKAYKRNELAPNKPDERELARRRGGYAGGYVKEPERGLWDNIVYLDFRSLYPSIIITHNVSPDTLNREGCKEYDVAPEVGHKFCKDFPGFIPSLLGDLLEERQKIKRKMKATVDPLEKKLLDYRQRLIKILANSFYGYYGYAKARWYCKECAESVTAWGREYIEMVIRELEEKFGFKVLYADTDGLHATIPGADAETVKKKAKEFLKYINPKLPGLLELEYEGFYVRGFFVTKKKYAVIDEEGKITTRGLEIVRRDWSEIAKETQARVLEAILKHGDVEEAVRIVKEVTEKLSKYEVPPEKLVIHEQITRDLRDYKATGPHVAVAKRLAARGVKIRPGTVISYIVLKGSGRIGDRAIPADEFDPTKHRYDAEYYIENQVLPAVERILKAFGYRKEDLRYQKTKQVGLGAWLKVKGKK
Compound,"IC50 [1, 3]","IC50 ([1]; adjusted IC50 used to set the concentrations of the termination assay, read-out: Adj IC50 Conc)",Average Weighted Sum ± SD ([2]; 1x IC50),Average Weighted Sum ± SD ([2]; 5x IC50),Average Weighted Sum ± SD ([2]; 25x IC50),"IC50 [1, 4]","IC50 [1, 5]"
5-(α-isopropyl-2-nitrobenzyloxy)methyl-2′-dUTP-5-R6G [6p005],15 ± 1 nM,–,–,–,–,–,–
5-(α-isopropyl-2-nitrobenzyloxy)methyl-2′-dUTP-6-FAM [6p094],8.1 ± 0.2 nM,–,–,–,–,–,–
5-(α-isopropyl-2-nitrobenzyloxy)methyl-2′-dUTP-6-ROX [6p044],18 ± 1 nM,–,–,–,–,–,–
6-ROX labeled 7-{(R)-1-[4-(3-amino-1-propynyl)-2-nitrophenyl]-2-methyl-propyloxy}methyl-7-deaza-2′-deoxyguanosine-5′-triphosphate [6p034],7.4 ± 0.1 nM,–,–,–,–,–,–
"CC(OCc1cn([C@H]2C[C@H](O)[C@@H](COP(=O)(O)OP(=O)(O)OP(=O)(O)O)O2)c(=O)[nH]c1=O)c1ccccc1[N+](=O)[O-] (mixture of isomers) [2p043, 5-(α-methyl-nitrobenzyl-oxymethyl)-2′-dUTP]",1.7 ± 0.2 nM,1.7 nM,0.53 ± 0.06,1.1 ± 0.0,1.7±0.1,–,–
"CC(Oc1nc(N)nc2c1ncn2[C@H]1C[C@H](O)[C@@H](COP(=O)(O)OP(=O)(O)OP(=O)(O)O)O1)c1ccccc1[N+](=O)[O-] (mixture of isomers) [2p143, O^6-(α-methyl-2-nitrobenzyl)-2′-dGTP]",–,–,–,–,–,10 nM,–
"CC(C)C(OCc1cn([C@H]2C[C@H](O)[C@@H](COP(=O)(O)OP(=O)(O)OP(=O)(O)O)O2)c(=O)[nH]c1=O)c1ccccc1[N+](=O)[O-] (mixture of isomers) [2p148, 5-(α-isopropyl-2-nitrobenzyloxy)methyl-2′-dUTP]",2.3 ± 0.1 nM,–,0.59 ± 0.02,0.99 ± 0.01,1.0 and 1.0 ± 0.01,–,2.1 nM
"CC(Nc1ncnc2c1ncn2[C@H]1C[C@H](O)[C@@H](COP(=O)(O)OP(=O)(O)OP(=O)(O)O)O1)c1ccccc1[N+](=O)[O-] (mixture of isomers) [3p006, N^6-(α-methyl-2-nitrobenzyl)-2′-dATP]",–,–,–,–,–,8.5 ± 1.8 nM,–
"CC(C)C(OCc1cn([C@H]2C[C@H](O)[C@@H](COP(=O)(O)OP(=O)(O)OP(=O)(O)O)O2)c(=O)[nH]c1=O)c1ccccc1 (mixture of isomers) [5p111, 5-(α-isopropyl-benzyloxy)methyl-2′-dUTP]",–,–,0.44 ± 0.02,0.96 ± 0.01,1.1 and 1.1 ± 0.03,0.8 nM,0.8 nM
"CC(C)(C)C(OCc1cn([C@H]2C[C@H](O)[C@@H](COP(=O)(O)OP(=O)(O)OP(=O)(O)O)O2)c(=O)[nH]c1=O)c1ccccc1[N+](=O)[O-] (single isomer, unassigned) [3p075, 5-[(R or S)-1-(2-nitrophenyl)-2,2-dimethyl-1-propyloxy]methyl-2′-deoxyuridine-5′-triphosphate]",–,–,–,–,–,3 nM,–
"CC(C)C(Nc1ncnc2c1ncn2[C@H]1C[C@H](O)[C@@H](COP(=O)(O)OP(=O)(O)OP(=O)(O)O)O1)c1ccccc1[N+](=O)[O-] (single isomer, unassigned) [6p063, N^6-(α-isopropyl-2-nitrobenzyl)-2′-dATP]",–,–,–,–,–,12 ± 1 nM,–
"Nc1nc(OCc2ccccc2[N+](=O)[O-])c2ncn([C@H]3C[C@H](O)[C@@H](COP(=O)(O)OP(=O)(O)OP(=O)(O)O)O3)c2n1 [2p108, O^6-(2-nitrobenzyl)-2′-dGTP]",–,–,–,–,–,4 ± 0.7 nM,–
"CC(C)[C@H](OCc1cn([C@H]2C[C@H](O)[C@@H](COP(=O)(O)OP(=O)(O)OP(=O)(O)O)O2)c(=O)[nH]c1=O)c1ccccc1[N+](=O)[O-] [3p063, 5-[(S)-1-(2-nitrophenyl)-2-methyl-propyloxy]methyl-2′-deoxyuridine-5′-triphosphate]",–,–,–,–,–,2 nM,–
"CC(C)[C@H](OCc1cn([C@H]2C[C@H](O)[C@@H](COP(=O)(O)OP(=O)(O)OP(=O)(O)O)O2)c(=O)nc1N)c1ccccc1[N+](=O)[O-] [3p065, 5-[(S)-1-(2-nitrophenyl)-2-methyl-propyloxy]methyl-2′-deoxycytidine-5′-triphosphate]",–,–,–,–,–,1.1 ± 0.1 nM,–
"Nc1ncnc2c1c(COCc1ccccc1[N+](=O)[O-])cn2[C@H]1C[C@H](O)[C@@H](COP(=O)(O)OP(=O)(O)OP(=O)(O)O)O1 [5p085, 7-(2-nitrobenzyloxy)methyl-7-deaza-2′-deoxyadenosine-5′-triphosphate]",–,–,–,–,–,3.6 ± 0.3 nM,–
"O=c1[nH]c(=O)n([C@H]2C[C@H](O)[C@@H](COP(=O)(O)OP(=O)(O)OP(=O)(O)O)O2)cc1COCc1ccccc1 [5p145, 5-(benzyloxy)methyl-2′-deoxyuridine-5′-triphosphate]",–,–,0.43 ± 0.1,1.3 ± 0.3,2.9 and 2.9 ± 0.4,1.4 nM,1.4 nM
"Cc1ccccc1COCc1cn([C@H]2C[C@H](O)[C@@H](COP(=O)(O)OP(=O)(O)OP(=O)(O)O)O2)c(=O)[nH]c1=O [5p147, 5-(2-methylbenzyloxy)methyl-2′-deoxyuridine-5′-triphosphate]",–,–,0.51 ± 0.1,1.5 ± 0.3,2.6 ± 0.4,1.4 nM,1.4 nM
"CC(C)c1ccccc1COCc1cn([C@H]2C[C@H](O)[C@@H](COP(=O)(O)OP(=O)(O)OP(=O)(O)O)O2)c(=O)[nH]c1=O [5p149, 5-(2-isopropylbenzyloxy)methyl-2′-deoxyuridine-5′-triphosphate]",–,–,0.53 ± 0.1,1.3 ± 0.1,2.2 ± 0.2,1.4 nM,1.4 nM
"O=c1[nH]c(=O)n([C@H]2C[C@H](O)[C@@H](COP(=O)(O)OP(=O)(O)OP(=O)(O)O)O2)cc1COCc1ccccc1-c1ccccc1 [6p010, 5-(2-phenylbenzyloxy)methyl-2′-deoxyuridine-5′-triphosphate]",–,–,0.46 ± 0.1,1.1 ± 0.1,1.7 and 1.7 ± 0.3,1.4 nM,1.4 nM
"Cc1cccc(C)c1COCc1cn([C@H]2C[C@H](O)[C@@H](COP(=O)(O)OP(=O)(O)OP(=O)(O)O)O2)c(=O)[nH]c1=O [6p015, 5-(2,6-dimethylbenzyloxy)methyl-2′-deoxyuridine-5′-triphosphate]",–,–,0.56 ± 0.1,1.5 ± 0.1,2.2 ± 0.1,1.4 nM,1.4 nM
"CC(C)(C)c1ccccc1COCc1cn([C@H]2C[C@H](O)[C@@H](COP(=O)(O)OP(=O)(O)OP(=O)(O)O)O2)c(=O)[nH]c1=O [6p024, 5-(2-tert-butylbenzyloxy)methyl-2′-deoxyuridine-5′-triphosphate]",–,–,0.44 ± 0.1,1.2 ± 0.1,1.9 ± 0.1,0.7 nM,0.7 nM
"Nc1ccn([C@H]2C[C@H](O)[C@@H](COP(=O)(O)OP(=O)(O)OP(=O)(O)O)O2)c(=O)n1 [dCTP, reference compound]",3 ± 0.6 nM,–,–,–,–,–,–
C^7-(α-isopropyl-2-nitrobenzyloxy)methyl-2′-dATP-6-CR110 [5p130-LP2],15 ± 3 nM,–,–,–,–,–,–
